{"source": "patent US9198416B2", "about": "“Method for enhancing drought tolerance in plants” (Plant Response Biotech S.L., priority 2013, dated 2015)", "assay_type_in_all_cases": "in vivo", "key": {"[1]": {"test": "TMAO content in pepper leaves by NMR after TMAO spray", "conditions": "1 g/l spray", "procedure": "(§1) For each wilting or limited water experiment 480 seeds (of either pepper, barley, tomato, cucumber or corn) were sown, producing 384 plants in 512 cm^3 pots (4 plants per pot). Plants were grown under chamber conditions at 21° C. for 3 weeks. Then, the plants were moved to a greenhouse, where average temperature was 25° C. to 28° C. Treatments as described herein were done when the plants had two extended leaves and the next pair of leaves were coming up.\n(§2) TMAO content in plants was determined by harvesting three leaves per treatment and freezing them in liquid nitrogen before the NMR determination. At least three independent plants were treated per experiment.\n(§3) TMAO accumulates in pepper and barley when applied exogenously. ‘Murano’ pepper seeds and ‘Bomi’ barley seeds were sown and grown as described above. Control plants (six weeks old) were sprayed with water and pepper treated plants were sprayed with 1 g/l of TMAO while barley plants were sprayed with 1 g/l of TMAO formulated with 0.1% of C8-C10 Alkylpolysaccharide. Leaves were harvested and TMAO was determined by NMR. The percentage of TMAO increase compared to untreated controls was determined for each time point. TMAO levels increase in pepper and barley with exogenous treatment of TMAO at 1 g/l to higher levels than drought treatment and furthermore, the TMAO levels are high up to 40 days post spray in pepper."}, "'TAO700' corn [2]": {"system": "'TAO700' corn", "test": "Corn total chlorophyll content under limited water irrigation", "conditions": "30% water", "procedure": "as §1\n(§4) After the treatments described above, the plants were not watered until the pots completely lost their moisture, taking about 4 to 8 days depending on the season, at which point the plants were extremely wilted for the extreme drought experiments. The plants were then watered once with solutions containing the different amounts of TMAO di-hydrate described above (0.1 g/L, 1.0 g/L or 5.5 g/L) or just water, after which the plants were left to lose their moisture completely again for three consecutive cycles of watering after wilting. […] The plant survival rate was recorded and analyzed for the “extreme drought” experiments in which plants were allowed to wilt severely before watering, while the stem length was recorded as analyzed for the limited water experiments in which the plants are watered with 30% of the water that the plant requires. […]"}, "'Rio Grande' tomato": {"system": "'Rio Grande' tomato", "test": "Tomato fruit production under limited water irrigation", "conditions": "30% water irrigation, 1 g/L TMAO spray every 4 weeks", "procedure": "as §1, §4"}, "'Bomi' barley": {"system": "'Bomi' barley", "test": "Barley dry weight under drought / limited water irrigation", "conditions": "drought growing conditions", "procedure": "as §1\nTwelve (12) pots (containing 48 plants) were irrigated with 40 ml of either: water, 0.1 g/L TMAO di-hydrate solution, 1.0 g/L TMAO di-hydrate solution, or 5.5 g/L TMAO di-hydrate solution. Another set of 12 pots containing 48 plants were sprayed with 40 ml of either water (3.3 ml in average per pot), a solution containing 0.1 g/L TMAO di-hydrate solution, 1.0 g/L TMAO di-hydrate, or 5.5 g/L TMAO di-hydrate. All pots were also watered with 40 ml of water. The sprayed plants were watered with the same volume of water as the “irrigated plants) The pots were located on plastic glass to maintain constant moisture and to avoid liquid spillage during watering. Trays containing the pots were located on greenhouse tables. The distribution of the trays on the table and the position on the pots in the tray was changed every week to avoid position effects.\n(§5) After the treatments described above, the plants were not watered until the pots completely lost their moisture, taking about 4 to 8 days depending on the season, at which point the plants were extremely wilted for the extreme drought experiments. […] The plant survival rate was recorded and analyzed for the “extreme drought” experiments in which plants were allowed to wilt severely before watering, while the stem length was recorded as analyzed for the limited water experiments in which the plants are watered with 30% of the water that the plant requires. […]"}, "[3]": {"test": "TMAO content in barley leaves by NMR after TMAO spray", "conditions": "1 g/l spray formulated with 0.1% C8-C10 Alkylpolysaccharide, 1 day post spray", "procedure": "as §1, §2, §3"}, "'FAO700' corn": {"system": "'FAO700' corn", "test": "Corn number of green leaves under limited water irrigation", "conditions": "30% water, 1 g/L (Table 11 rows 3 and 4)", "procedure": "as §1, §4"}, "'Murano' pepper": {"system": "'Murano' pepper", "test": "Pepper plant survival under extreme drought", "conditions": "10 g/L and 1 g/L sprayed, irrigation with water (as worded)", "procedure": "as §1\nTwelve (12) pots (containing 48 plants) were irrigated with 40 ml of either: water, 0.1 g/L TMAO di-hydrate solution, 1.0 g/L TMAO di-hydrate solution, or 5.5 g/L TMAO di-hydrate solution. […] All pots were also watered with 40 ml of water. […]\nas §5"}, "[4]": {"system": "'Sabrina', 'Candonga' and 'Fortuna' variety strawberry plants", "test": "Strawberry fruit production under normal conditions (trade-off test)", "conditions": "no water stress; for Strawberry fruit production % Control: 1 g/L spray every 4 weeks for 3 months", "procedure": "In order to determine the plant fruit productivity under normal conditions, ‘Sabrina’, ‘Candonga’ and ‘Fortuna’ variety strawberry plants were grown under standard strawberry production conditions and 120 plants of each variety per treatment (where the treatment was a Control comprising standard watering or 1 g/L of TMAO spray every four weeks) were analyzed. Plants were located in four (4) different positions for each group of 30 plants from the same treatment. Fruits were harvested from individual plants and total weight was determined for each plant.\nFruit yield was determined in ‘Sabrina’, ‘Candonga’ and ‘Fortuna’ strawberry plants treated with 1 g/l of TMAO di-hydrate or water as described above in order to evaluate the trade-off costs of the treatment with no water stress."}, "'TAO700' corn [5]": {"system": "'TAO700' corn", "test": "Corn number of grains per cob under limited water irrigation", "conditions": "30% water, 1 g/L (Table 13 row 4)", "procedure": "as §1, §4"}, "[6]": {"system": "tomato 'Moneymaker' seeds", "test": "Tomato seed germination under PEG-6000 simulated drought", "conditions": "10 days", "procedure": "In order to determine the drought or water stress tolerance after seed treatments with TMAO di-hydrate and germination in the presence of TMAO di-hydrate, tomato ‘Moneymaker’ seeds were surface sterilized for 3 minutes in ethanol 70%, then rinsed twice and finally included in a pre-treatment solution of 0.1 g/L TMAO di-hydrate solution (or just water) under shaking for 3 hours. Then, they were rinsed and included in the germination plates under sterile conditions. Polyethylene glycol (PEG-6000) was added to the germination medium (Murashige and Skoog salts medium) at 152 and 182 g/L. The increasing amount of PEG reduces ψ (hydric potential) values, simulating drought conditions for germination. Each germination plate had at least 30 seeds, and each treatment/pretreatment plate was replicated five times (150 seeds per treatment/pretreatment). Seeds were left to germinate for 10 days under dark conditions in a culture chamber (21° C. light and 20° C. night, 65% humidity). Then, germinated seeds were recorded by visual inspection and data analysis was performed using Statgraphics software.\nTMAO di-hydrate applied exogenously increases germination both in pre-treatment of the seeds and as an additive to the medium. Tomato ‘Moneymaker’ seeds were sown, grown and treated as described above."}, "Moneymaker tomato": {"system": "Moneymaker tomato", "test": "Tomato plant survival under extreme drought", "conditions": "higher test rates, both treatments (sprayed or watered)", "procedure": "as §1\nTwelve (12) pots (containing 48 plants) were irrigated with 40 ml of either: water, 0.1 g/L TMAO di-hydrate solution, 1.0 g/L TMAO di-hydrate solution, or 5.5 g/L TMAO di-hydrate solution. […]\nas §5"}}, "data": [{"compound": "C[N+](C)(C)[O-]", "note": "[TMAO, Trimethylamine N-oxide]", "values": [{"measurement": "TMAO accumulation % Control", "setting": "[1]; 1 day post spray, vs water-sprayed control", "value": 529, "unit": "% Control"}, {"measurement": "TMAO accumulation % Control", "setting": "[1]; 10 days post spray", "value": 373, "unit": "% Control"}, {"measurement": "TMAO accumulation % Control", "setting": "[1]; 20 days post spray", "value": 286, "unit": "% Control"}, {"measurement": "TMAO accumulation % Control", "setting": "[1]; 30 days post spray", "value": 135, "unit": "% Control"}, {"measurement": "TMAO accumulation % Control", "setting": "[1]; 40 days post spray", "value": 213, "unit": "% Control"}, {"measurement": "TOTAL CHLOROPHYL CONTENT", "setting": "'TAO700' corn [2]; 1 g/L TMAO seed treatment", "value": "0.8977 ± 0.195"}, {"measurement": "TOTAL CHLOROPHYL CONTENT", "setting": "'TAO700' corn [2]; 1 g/L TMAO spray", "value": "0.7278 ± 0.076"}, {"measurement": "AVERAGE WEIGTH (grams/fruit)", "setting": "'Rio Grande' tomato", "value": "76.73 ± 17.67", "unit": "grams/fruit"}, {"measurement": "AVERAGE DRY WEIGHT", "setting": "'Bomi' barley; initial treatment 1 g/L sprayed solution, irrigations water", "value": "1205.4 ± 60.37", "unit": "mg"}, {"measurement": "AVERAGE DRY WEIGHT", "setting": "'Bomi' barley; initial treatment 1 g/L watered solution, irrigations water", "value": "1371.4 ± 66.13", "unit": "mg"}, {"measurement": "AVERAGE DRY WEIGHT", "setting": "'Bomi' barley; irrigations 1 g/L solution, initial treatments pooled", "value": "1216.1 ± 33.44", "unit": "mg"}, {"measurement": "TMAO accumulation % Control", "setting": "[3]", "value": 822, "unit": "% Control"}, {"measurement": "increase in green leaf production over untreated plants with 30% irrigation", "setting": "'FAO700' corn", "value": 47, "unit": "%"}, {"measurement": "plant survival", "setting": "'Murano' pepper", "value": 83.3, "unit": "%"}, {"measurement": "difference in fruit production vs water", "setting": "[4]; 1 g/l, three strawberry varieties", "value": "no significant difference"}, {"measurement": "Strawberry fruit production % Control", "setting": "[4]; Candonga", "value": 102, "unit": "% Control"}, {"measurement": "Strawberry fruit production % Control", "setting": "[4]; Fortuna", "value": 101, "unit": "% Control"}, {"measurement": "Strawberry fruit production % Control", "setting": "[4]; Sabrina", "value": 106, "unit": "% Control"}, {"measurement": "Strawberry fruit production % Control", "setting": "[4]; Total of the three varieties", "value": 105, "unit": "% Control"}, {"measurement": "increase in total number of grains per corn cob compared to 100% irrigation", "setting": "'TAO700' corn [5]", "value": 2, "unit": "%"}, {"measurement": "GERMINATION RATE", "setting": "[6]; PEG 152 g/L (ψ −0.2564), 0.1 g/L in the germination medium", "value": "71.09 ± 4.26", "unit": "%"}, {"measurement": "GERMINATION RATE", "setting": "[6]; PEG 152 g/L (ψ −0.2564), seed pre-treatment 0.1 g/L solution 3 hours", "value": "70.62 ± 4.62", "unit": "%"}, {"measurement": "GERMINATION RATE", "setting": "[6]; PEG 182 g/L (ψ −0.3676), 0.1 g/L in the germination medium", "value": "45.00 ± 3.20", "unit": "%"}, {"measurement": "GERMINATION RATE", "setting": "[6]; PEG 182 g/L (ψ −0.3676), seed pre-treatment 0.1 g/L solution 3 hours", "value": "18.53 ± 3.20", "unit": "%"}, {"measurement": "shoot dry mass compared with untreated plants", "setting": "Moneymaker tomato", "value": "clear increase"}]}]}
